Measurements published in patent publication US11304939B2, “Methods for treating oral cancers” (Chang Gung University, priority 2020, dated 2022).

Key:
SAS cells [1] = assay: MTT cell viability assay, SAS cells; type: cell-based; conditions: 48 hours; for cell viability / proliferation (MTT): vs vehicle control
Protocol: (§1) For cell viability assay, approximately 5×10^4 cells were seeded into each well of a 96-well plate, and treated with vehicle control or inhibitors at the indicated concentrations for 48 hours in complete medium, followed by MTT viability assay. The absorbance was read at 540 nm in a multiwell spectrophotometer (SpectraMax M2; Molecular Devices, USA). All samples were run in triplicate. For apoptosis assay, cells were plated in 6-well dishes, and treated with vehicle control or various inhibitors at the indicated concentrations for 48 hours. Cells were then harvested, washed with PBS, and stained with 2 μl an FITC-conjugated Annexin V antibody (Invitrogen, USA) and 50 μg/ml propidium iodide (Sigma-Aldrich, USA), followed by flow cytometry analysis (Attune NxT; Invitrogen, USA) and data analysis by FlowJo software (Tree Star, Inc.).

OEC-M1 cells [2] = assay: MTT cell viability assay, OEC-M1 cells; type: cell-based; conditions: 48 hours; for cell viability / proliferation (MTT): vs vehicle control
Protocol: as §1

patient #2 PDX = assay: OSCC PDX model, patient #2, tumor growth; type: in vivo, NSG mice; conditions: PF477736 20 mg/kg; for growth of PDX tumors vs control: Cisplatin 5 mg/kg, combined vs control p=0.006
Protocol: (§2) For OSCC PDX animal model, three patients of newly diagnosed were recruited, and written consents were obtained in accordance with the protocols approved by the Institutional Review Board of Chang Gung Memorial Hospital. Patient tumor explants were prepared from surgical specimens, and engrafted into NSG mice within 2 hours. Briefly, fresh tumor tissues were rinsed in PBS containing an antibiotic-antimycotic solution (Gibco, USA), and chopped into small pieces (˜1 mm^3). Each NSG mouse was subcutaneously grafted with 50-100 mg tumors in the left flank. When tumors reached 400-500 mm^3 in size, animals were randomly assigned into control and different treatment groups. Treatments for each single drug were the same as those used in the SAS CDX model as described above. For combined treatments, for the combination therapy of Cisplatin and PF477736, Cisplatin was used at the dose of 5 mg/kg, and administered intraperitoneally 2 days/week for one week; whilst PF477736 was used at the dose of 20 mg/kg, and administered intraperitoneally 4 days/week for one week; and for the combination therapy of PF477736 and BYL719, PF477736 was used at the dose of 20 mg/kg, and administered intraperitoneally 4 days/week for one week; whilst BYL719 was used at the dose of 50 mg/kg, and administered orally 5 days/week for two weeks. Tumors were measured with calipers, and the volume was calculated as ½×length×width^2. Three PDX models in total were evaluated for response to single treatments or combined treatments. All animal experiments were approved by the Institutional Animal Care and Use Committee of Chang Gung University.

SAS cells xenograft = assay: SAS cell line-derived xenograft (OSCC CDX) tumor growth; type: in vivo, NOD/SCID mice
Protocol: NOD/SCID mice and NOD.Cg-Prkdcscid Il2rgtm1Wjl/SzJ (NSG) mice were housed in an animal facility at Chang Gung University. For SAS cell line-derived xenograft (CDX) animal model, SAS cells were prepared in serum-free DMEM (5×10^6 cells per ml). SAS cell suspensions (100 μl) were injected subcutaneously into NOD/SCID mice (6-8 weeks), and tumors were established after 3-4 weeks. Once xenografts reached 300-500 mm^3, mice were randomly divided into the treatment groups or control groups. PF477736 was used at the dose of 10 or 20 mg/kg, and administered intraperitoneally 4 days/week. BYL719 was used at the dose of 25 or 50 mg/kg, and administered orally 5 days/week. Cisplatin was used at the dose of 5 mg/kg, and administered intraperitoneally 2 days/week. During the course of treatment (two to three weeks), the tumor size was monitored twice weekly, and the tumor volumes were calculated.

OEC-M1 cells [3] = assay: colony-forming assay, OEC-M1 cells; type: cell-based
AKT = assay: immunoblotting of phosphorylation of AKT; type: cell-based; conditions: after UV exposure
Protocol: After treatments, whole-cell lysates from each sample were prepared by lysed with RIPA lysis buffer (1% NP_40, 20 mM Tris-HCl (pH 7.5), 150 mM NaCl, 1 mM Na3VO4, 5 mM EDTA (pH 8.0), 10% glycerol, PMSF, and 0.2% protease inhibitor) for 15-30 minutes on ice, and centrifuged at 15,000×g for 20 min at 4° C. Equal amounts of protein from each sample were fractionated by SDS-PAGE, and transferred to a PVDF membrane, which was incubated with the appropriate primary antibody. Proteins were detected with HRP-conjugated secondary antibodies and ECL substrate (PerkinElmer, USA).
In the present study, the efficacy of the PI3K inhibitors (e.g., BYL719, GDC-0941, and GSK1059615) toward eliminating OSCC cell lines (including SAS, OEC-M1, and OC3) was examined. First of all, cell proliferation assays after the PI3K inhibitors (i.e., BYL719, GDC-0941, and GSK1059615) treatments were performed, and the results were provided in FIG. 3A. […] The IC50 for BYL719 in the SAS, OC3, and OECM1 cell lines ranged from 8 to 20 μM (FIG. 3A). Another indication for measuring anti-cancer activity was by investigating the colony-forming ability of SAS and OEC-M1 cells treated with BYL719. […] The effects for PI3K inhibitors on the PI3K/AKT/mTOR signaling pathway were studied as well.

patient #1 PDX = assay: OSCC PDX model, patient #1, tumor growth; type: in vivo, NSG mice; conditions: PF477736 20 mg/kg; for growth of PDX tumors vs control: Cisplatin 5 mg/kg, combined vs control p=0.0024
Protocol: as §2

[4] = tested on: SAS, OC3, and OEC-M1 cells; assay: MTT cell viability assay, one range over three OSCC cell lines; type: cell-based; conditions: OECM1
Protocol: as §1

SAS cells [5] = assay: colony-forming assay, SAS cells; type: cell-based
OSCC cells = assay: apoptosis assay (Annexin V staining), OSCC cells; type: cell-based; conditions: increasing concentration
Protocol: as §1

patient #3 PDX = assay: OSCC PDX model, patient #3, tumor growth; type: in vivo, NSG mice; conditions: Cisplatin 5 mg/kg, PF477736 20 mg/kg, combined vs control p=0.03
Protocol: For OSCC PDX animal model, three patients of newly diagnosed were recruited, and written consents were obtained in accordance with the protocols approved by the Institutional Review Board of Chang Gung Memorial Hospital. Patient tumor explants were prepared from surgical specimens, and engrafted into NSG mice within 2 hours. Briefly, fresh tumor tissues were rinsed in PBS containing an antibiotic-antimycotic solution (Gibco, USA), and chopped into small pieces (˜1 mm^3). Each NSG mouse was subcutaneously grafted with 50-100 mg tumors in the left flank. When tumors reached 400-500 mm^3 in size, animals were randomly assigned into control and different treatment groups. Treatments for each single drug were the same as those used in the SAS CDX model as described above. […] Tumors were measured with calipers, and the volume was calculated as ½×length×width^2. Three PDX models in total were evaluated for response to single treatments or combined treatments. […]

OEC-M1 cells [6] = assay: apoptosis assay (Annexin V and PI staining), OEC-M1 cells; type: cell-based; conditions: 48 hours
Protocol: as §1

SAS cells [7] = assay: apoptosis assay (Annexin V and PI staining), SAS cells; type: cell-based; conditions: 48 hours
Protocol: as §1

CHK1 = target: T1, CHK1 (Homo sapiens, UniProt O14757); assay: immunoblotting of UV-induced phosphorylation of CHK1 at Ser296 in SAS cells; conditions: SAS cells after UV exposure
T1 sequence (O14757 1-476): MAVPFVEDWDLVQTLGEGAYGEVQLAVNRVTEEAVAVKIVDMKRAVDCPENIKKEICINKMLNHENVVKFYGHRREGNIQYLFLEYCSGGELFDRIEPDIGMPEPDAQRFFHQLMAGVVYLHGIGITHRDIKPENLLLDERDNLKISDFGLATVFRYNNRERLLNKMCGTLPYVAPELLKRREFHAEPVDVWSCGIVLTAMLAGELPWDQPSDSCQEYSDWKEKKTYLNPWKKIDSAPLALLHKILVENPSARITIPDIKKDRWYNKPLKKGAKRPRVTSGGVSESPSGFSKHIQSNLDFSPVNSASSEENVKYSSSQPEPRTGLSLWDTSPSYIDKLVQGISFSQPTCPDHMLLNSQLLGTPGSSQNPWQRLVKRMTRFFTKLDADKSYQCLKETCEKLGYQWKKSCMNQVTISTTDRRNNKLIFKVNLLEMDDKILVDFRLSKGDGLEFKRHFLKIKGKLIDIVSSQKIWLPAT
Protocol: After treatments, whole-cell lysates from each sample were prepared by lysed with RIPA lysis buffer (1% NP—40, 20 mM Tris-HCl (pH 7.5), 150 mM NaCl, 1 mM Na3VO4, 5 mM EDTA (pH 8.0), 10% glycerol, PMSF, and 0.2% protease inhibitor) for 15-30 minutes on ice, and centrifuged at 15,000×g for 20 min at 4° C. Equal amounts of protein from each sample were fractionated by SDS-PAGE, and transferred to a PVDF membrane, which was incubated with the appropriate primary antibody. Proteins were detected with HRP-conjugated secondary antibodies and ECL substrate (PerkinElmer, USA).
On the molecular level, the biochemical effects of the three CHK1 inhibitors in SAS cells were characterized. DNA damage was first induced by UV exposure, and the CHK1 inhibitors were then applied to the injured cells.

OC3 cells = assay: apoptosis assay (Annexin V and PI staining), OC3 cells; type: cell-based; conditions: 48 hours
Protocol: as §1

Row | Structure (SMILES) | cell viability / proliferation (MTT) (SAS cells [1]) | cell viability / proliferation (MTT) (OEC-M1 cells [2]) | colony-forming ability (OEC-M1 cells [3]) | phosphorylation of AKT (AKT) | colony-forming ability (SAS cells [5]) | growth of PDX tumors vs control (patient #2 PDX) | growth of PDX tumors vs control (patient #1 PDX) | growth of PDX tumors vs control (patient #3 PDX) | further results
1 | COc1cccc(OCCCN)c1-c1cc(Nc2cnc(C#N)cn2)n[nH]1 [LY2606368, Prexasertib] | dose-dependent inhibition | dose-dependent inhibition |  |  |  |  |  |  | 
2 | Cc1nc(NC(=O)N2CCC[C@H]2C(N)=O)sc1-c1ccnc(C(C)(C)C(F)(F)F)c1 [BYL719, Alpelisib] | clear reduction in proliferation | clear reduction in proliferation | compromised in a dose-dependent manner | specifically inhibited phosphorylation of AKT | compromised in a dose-dependent manner |  |  |  | tumor growth vs control (patient #2 PDX; BYL719 50 mg/kg, monotherapy p=0.16, combined p=0.036): slightly inhibited tumor growth; tumor growth vs control (SAS cells xenograft; 50 mg/kg orally 5 days/week, p=0.011): significantly suppressed tumor growth; tumor growth vs control (patient #1 PDX; BYL719 50 mg/kg, monotherapy p=0.66, combined p=0.844): could not inhibit tumor growth; IC50 [4]: 8 to 20 µM; cell apoptosis (Annexin V staining) (OSCC cells): gradually elevation in apoptosis
3 | N.N.[Cl][Pt][Cl] [Cisplatin] |  |  |  |  |  | partially but not significantly inhibit the growth | partially but not significantly inhibit the growth | partially but not significantly inhibit the growth | tumor growth vs control (SAS cells xenograft; 5 mg/kg intraperitoneally 2 days/week, p=0.03): exhibited an ability to inhibit tumor growth
4 | CS(=O)(=O)N1CCN(Cc2cc3nc(-c4cccc5[nH]ncc45)nc(N4CCOCC4)c3s2)CC1 [GDC-0941, Pictilisib] | clear reduction in proliferation | clear reduction in proliferation |  | specifically inhibited phosphorylation of AKT |  |  |  |  | 
5 | O=C1NC(=O)/C(=C/c2ccc3nccc(-c4ccncc4)c3c2)S1 [GSK1059615, (Z)-5-((4-(pyridin-4-yl)quinolin-6-yl)methylene)thiazolidine-2,4-dione] | clear reduction in proliferation | clear reduction in proliferation |  | specifically inhibited phosphorylation of AKT |  |  |  |  | 
6 | Cn1cc(-c2[nH]c3cc(NC(=O)[C@H](N)C4CCCCC4)cc4c3c2C=NNC4=O)cn1 [PF477736, (R)-2-amino-2-cyclohexyl-N-(2-(1-methyl-1H-pyrazol-4-yl)-6-oxo-5,6-dihydro-1H-[1,2]diazepino[4,5,6-cd]indol-8-yl)acetamide] | dose-dependent inhibition | dose-dependent inhibition | significantly impaired the colony-forming ability |  | significantly impaired the colony-forming ability | partially but not significantly inhibit the growth | partially but not significantly inhibit the growth | partially but not significantly inhibit the growth | tumor growth vs control (SAS cells xenograft; 10 mg/kg intraperitoneally 4 days/week, p=0.083): could barely suppress tumor growth; tumor growth vs control (SAS cells xenograft; 20 mg/kg intraperitoneally 4 days/week, p=0.081): could barely suppress tumor growth; cell apoptosis (Annexin V and PI staining) (OEC-M1 cells [6]): significantly exacerbated cell apoptosis; cell apoptosis (Annexin V and PI staining) (SAS cells [7]): significantly exacerbated cell apoptosis; phosphorylation of CHK1 at Ser296 (CHK1): specifically reduce phosphorylation of CHK1; IC50 (SAS cells [1]; MTT, read-out: half-maximal inhibitory concentration (IC50)): 0.12 to 0.4 µM; IC50 (OEC-M1 cells [2]; OECM1, MTT, read-out: half-maximal inhibitory concentration (IC50)): 10 µM; cell apoptosis (Annexin V and PI staining) (OC3 cells): significantly exacerbated cell apoptosis
